Data as given in patent US9309276B2, “Synthetic lipid A derivative” (University of Georgia Research Foundation, Inc., priority 2007, dated 2016).

Target: T1, murine TLR4, MD2, and CD14 (Mus musculus, UniProt Q9JHF9+Q9QUK6)
T1 construct: host or cells: HEK 293T
T1 sequence (Q9QUK6 26-835): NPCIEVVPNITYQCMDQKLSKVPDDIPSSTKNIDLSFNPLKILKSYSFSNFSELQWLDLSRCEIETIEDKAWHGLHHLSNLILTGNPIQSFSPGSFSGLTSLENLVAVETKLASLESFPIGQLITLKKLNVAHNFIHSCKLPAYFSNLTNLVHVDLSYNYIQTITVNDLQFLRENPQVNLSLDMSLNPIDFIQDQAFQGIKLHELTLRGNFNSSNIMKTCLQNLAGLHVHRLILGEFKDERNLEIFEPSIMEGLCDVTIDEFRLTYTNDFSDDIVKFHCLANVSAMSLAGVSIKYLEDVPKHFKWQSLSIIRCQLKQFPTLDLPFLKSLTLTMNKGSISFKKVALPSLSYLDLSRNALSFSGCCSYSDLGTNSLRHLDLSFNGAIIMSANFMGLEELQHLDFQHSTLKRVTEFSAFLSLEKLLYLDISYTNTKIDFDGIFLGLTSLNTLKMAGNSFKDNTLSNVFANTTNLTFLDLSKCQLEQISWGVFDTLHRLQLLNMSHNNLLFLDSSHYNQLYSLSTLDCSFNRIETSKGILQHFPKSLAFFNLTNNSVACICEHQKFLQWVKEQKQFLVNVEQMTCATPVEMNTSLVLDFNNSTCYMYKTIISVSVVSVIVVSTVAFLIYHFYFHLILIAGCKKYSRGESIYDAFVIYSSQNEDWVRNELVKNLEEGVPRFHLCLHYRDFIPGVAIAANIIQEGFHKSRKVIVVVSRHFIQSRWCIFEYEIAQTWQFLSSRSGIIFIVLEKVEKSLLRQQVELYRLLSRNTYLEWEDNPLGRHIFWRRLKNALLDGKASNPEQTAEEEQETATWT
T1 sequence (Q9JHF9 19-160): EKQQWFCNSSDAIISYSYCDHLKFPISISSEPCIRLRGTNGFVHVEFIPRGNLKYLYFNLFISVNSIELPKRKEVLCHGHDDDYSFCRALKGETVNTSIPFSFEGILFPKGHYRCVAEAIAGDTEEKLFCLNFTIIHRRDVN
Assay: NF-κB activation (luciferase reporter) in HEK 293T cells stably transfected with murine TLR4/MD2/CD14
Type: cell-based
Conditions: for EC50: 4 h exposure, dual-luciferase, best-fit value
Method: Induction of NF-κB activation was determined in triplicate cultures of HEK 293T cells stably transfected with murine TLR4, MD2, and CD14 and transiently transfected with pELAM-Luc, pRL-TK, and pcDNA3 plasmids. Forty-four hours post-transfection, cells were treated with E. coli LPS or lipid A derivatives 1-5 at the indicated concentrations or were left untreated (control). Forty-eight hours post-transfection, NF-κB activation was determined by firefly luciferase activity relative to Renilla luciferase activity. In the transfection experiment shown, human TNF-α (10 ng/mL) induced 12.1±0.3-fold activation of NF-κB.
To obtain further support that the EC50 values of secreted TNF-α protein are not affected by transcriptional, translational, or protein processing processes, dose response curves for the activation of the transcription factor NF-κB were determined for each compound and the results compared with similar data for secretion of TNF-α protein. Thus, compounds 1-5, and E. coli LPS were exposed at a range of concentrations to HEK 293T cells stably transfected with […] TLR4/MD2/CD14 and transiently transfected with a plasmid containing the reporter gene pELAM-Luc (NF-κB dependent firefly luciferase reporter vector) and a plasmid containing the control gene pRL-TK (Renilla luciferase control reporter vector). As a negative control, wild type HEK 293T cells transiently transfected with plasmids containing the reporter gene pELAM-Luc and control gene pRL-TK were used. After an incubation time of 4 h, the activity was measured using a commercial dual-luciferase assay.
The day before transfection, HEK 293T wild type cells and HEK 293T cells stably transfected with murine TLR4/MD2/CD14 were plated in 96-well tissue culture plates (16,000 cells/well). The next day, cells were transiently transfected using PolyFect Transfection Reagent (Qiagen) with expression plasmids pELAM-Luc (NF-κB-dependent firefly luciferase reporter plasmid, 50 ng/well) (Chow et al., J. Biol. Chem. 1999, 274, 10689-10692) and pRL-TK (Renilla luciferase control reporter vector, 1 ng/well; Promega) as an internal control to normalize experimental variations. The empty vector pcDNA3 (Invitrogen) was used as a control and to normalize the DNA concentration for all of the transfection reactions (total DNA 70 ng/well). […] The luciferase activity was measured using the Dual-Luciferase Reporter Assay System (Promega) according to the manufacturer's instructions and the Fluoroskan Accent FL combination luminometer/fluorometer (Thermo Electron Corporation). […]
Concentration-response data were analyzed using nonlinear least-squares curve fitting in Prism (GraphPad Software, Inc.). […]

Compound: CCCCCCCCCCCCCCCC(=O)O[C@H](CCCCCCCCCCCC(C)C)CC(=O)N[C@H]1[C@H](OC[C@H]2O[C@H](OP(=O)(O)O)[C@H](NC(=O)C[C@H](O)CCCCCCCCCCCC(C)C)[C@@H](O)[C@@H]2O)O[C@H](CO)[C@@H](O)[C@@H]1ONC(=O)C[C@H](O)CCCCCCCCCC(C)C [Compound 104, 6-O-{2-Deoxy-2-[(R)-3-hexadecanoyloxy-15-methyl-hexadecanoylamino]-3-O—[(R)-3-hydroxy-13-methyl-tetradecanoylamino]-β-D-glucopyranosyl}-2-deoxy-2-[(R)-3-hydroxy-15-methyl-hexadecanoylamino]-α-D-glucopyranose 1-phosphate]
- NF-κB activation, mouse TLR4/MD2/CD14 (Example III, 104 at 0.1, 1 and 10 μg mL−1, E. coli LPS 10 ng mL−1, 4 h): at high concentrations, compound 104 could induce NF-κB activation

Compound: CCCCCCCCCCCCCC(=O)OC(CCCCCCCCCCC)CC(=O)OC1C(NC(=O)CC(CCCCCCCCCCC)OC(=O)CCCCCCCCCCC)C(OCC2OC(OP(=O)(O)O)C(NC(=O)CC(O)CCCCCCCCCCC)C(OC(=O)CC(O)CCCCCCCCCCC)C2O)OC(CO)C1OP(=O)(O)O [Lipid A 1, 6-O-{2-Deoxy-2-[(R)-3-dodecanoyloxy-tetradecanoylamino]-3-O—[(R)-3-tetradecanoyloxy-tetradecanoyl]-β-D-glucopyranosyl}-2-deoxy-3-O—[(R)-3-hydroxy-tetradecanoyl]-2-[(R)-3-hydroxy-tetradecanoylamino]-α-D-glucopyranose 1,4′-bisphosphate]
- EC50: 38 nM

Compound: CCCCCCCCCCCC(=O)OC(CCCCCCCCCCC)CC(=O)NC1C(OCC2OC(OP(=O)(O)O)C(NC(=O)CC(O)CCCCCCCCCCC)C(OC(=O)CC(O)CCCCCCCCC)C2O)OC(CO)C(OP(=O)(O)O)C1OC(=O)CC(CCCCCCCCC)OC(=O)CCCCCCCCCCC [Lipid A 2, 6-O-{2-Deoxy-3-O—[(R)-3-dodecanoyloxy-dodecanoyl]-2-[(R)-3-dodecanoyloxy-tetradecanoylamino]-β-D-glucopyranosyl}-2-deoxy-3-O—[(R)-3-hydroxy-dodecanoyl]-2-[(R)-3-hydroxy-tetredecanoylamino]-α-D-glucopyranose 1,4′-bisphosphate]
- EC50: 14 nM

Compound: CCCCCCCCCCCCCCCC(=O)OC(CCCCCCCCCCC)CC(=O)NC1C(OP(=O)(O)O)OC(COC2OC(CO)C(OP(=O)(O)O)C(OC(=O)CC(CCCCCCCCC)OC(=O)CCCCCCCCCCC)C2NC(=O)CC(CCCCCCCCCCC)OC(=O)CCCCCCCCCCC)C(O)C1OC(=O)CC(O)CCCCCCCCC [Lipid A 4, 6-O-{2-Deoxy-3-O—[(R)-3-dodecanoyloxy-dodecanoyl]-2-[(R)-3-dodecanoyloxy-tetradecanoylamino]-β-D-glucopyranosyl}-2-deoxy-2-[(R)-3-hexadecanoyloxy-tetredecanoylamino]-3-O—[(R)-3-hydroxy-dodecanoyl]-α-D-glucopyranose 1,4′-bisphosphate]
- EC50: 53 nM
